Assays:
panel of 442 kinases [1] = target: T1, panel of 442 kinases (Homo sapiens, UniProt O60285); type: binding; parameters: KINOMEscan: ABL1(F317L)-phosphorylated / KINOMEscan: ABL1(H396P)-nonphosphorylated / KINOMEscan: ABL1(H396P)-phosphorylated / KINOMEscan: ABL1(M351T)-phosphorylated / KINOMEscan: ABL1(T315I)-phosphorylated / KINOMEscan: ABL1-nonphosphorylated / KINOMEscan: ABL1-phosphorylated / KINOMEscan: ACVR2A / KINOMEscan: ACVR2B / KINOMEscan: ADCK3 / KINOMEscan: ADCK4 / KINOMEscan: AKT1 / KINOMEscan: AKT3 / KINOMEscan: ALK / KINOMEscan: ARK5 / KINOMEscan: AURKA / KINOMEscan: AURKC / KINOMEscan: BIKE / KINOMEscan: BMPR1A / KINOMEscan: BMPR1B / KINOMEscan: BMX / KINOMEscan: BRK / KINOMEscan: BRSK1 / KINOMEscan: BRSK2 / KINOMEscan: CAMK1 / KINOMEscan: CAMK1D / KINOMEscan: CAMK1G / KINOMEscan: CAMK2A / KINOMEscan: CAMK2B / KINOMEscan: AAK1 / KINOMEscan: CAMK2D / KINOMEscan: CAMK2G / KINOMEscan: ABL1(F317I)-nonphosphorylated / KINOMEscan: ABL1(F317I)-phosphorylated / KINOMEscan: ABL1(F317L)-nonphosphorylated: unit: % Ctrl; conditions: Compound Concentration 10 µM
T1 construct: purchased KINOMEscan
T1 sequence (O60285 1-661): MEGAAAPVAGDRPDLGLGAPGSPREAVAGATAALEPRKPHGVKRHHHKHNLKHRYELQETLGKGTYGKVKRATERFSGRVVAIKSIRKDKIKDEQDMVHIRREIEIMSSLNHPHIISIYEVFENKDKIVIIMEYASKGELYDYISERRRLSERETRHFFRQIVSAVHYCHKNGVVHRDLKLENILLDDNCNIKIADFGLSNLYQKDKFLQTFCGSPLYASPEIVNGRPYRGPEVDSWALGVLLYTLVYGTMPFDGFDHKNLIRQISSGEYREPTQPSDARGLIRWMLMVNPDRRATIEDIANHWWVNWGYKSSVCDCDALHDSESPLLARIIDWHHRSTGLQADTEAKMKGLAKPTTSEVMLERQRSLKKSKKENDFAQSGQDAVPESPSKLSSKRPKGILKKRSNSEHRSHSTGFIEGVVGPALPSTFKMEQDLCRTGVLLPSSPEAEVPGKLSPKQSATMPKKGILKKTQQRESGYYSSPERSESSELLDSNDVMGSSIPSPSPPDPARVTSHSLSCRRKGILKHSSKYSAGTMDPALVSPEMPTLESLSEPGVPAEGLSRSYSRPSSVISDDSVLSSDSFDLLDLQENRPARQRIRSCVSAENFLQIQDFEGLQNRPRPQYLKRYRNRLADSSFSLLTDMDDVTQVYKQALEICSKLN
From the text: (§1) We assessed the selectivity of members of this scaffold using the KINOMEscan methodology across a near comprehensive panel of 442 kinases [[18,27]].

panel of 442 kinases [2] = target: T2, panel of 442 kinases (Homo sapiens, UniProt O15146); type: binding; parameters: KINOMEscan: ABL1(F317L)-phosphorylated / KINOMEscan: ABL1(H396P)-nonphosphorylated / KINOMEscan: ABL1(H396P)-phosphorylated / KINOMEscan: ABL1(M351T)-phosphorylated / KINOMEscan: ABL1(T315I)-phosphorylated / KINOMEscan: ABL1-nonphosphorylated / KINOMEscan: ABL1-phosphorylated / KINOMEscan: ACVR2A / KINOMEscan: ACVR2B / KINOMEscan: ADCK3 / KINOMEscan: ADCK4 / KINOMEscan: AKT1 / KINOMEscan: AKT3 / KINOMEscan: ALK / KINOMEscan: ARK5 / KINOMEscan: AURKA / KINOMEscan: AURKC / KINOMEscan: BIKE / KINOMEscan: BMPR1A / KINOMEscan: BMPR1B / KINOMEscan: BMX / KINOMEscan: BRK / KINOMEscan: BRSK1 / KINOMEscan: BRSK2 / KINOMEscan: CAMK1 / KINOMEscan: CAMK1D / KINOMEscan: CAMK1G / KINOMEscan: CAMK2A / KINOMEscan: CAMK2B / KINOMEscan: AAK1 / KINOMEscan: CAMK2D / KINOMEscan: CAMK2G / KINOMEscan: ABL1(F317I)-nonphosphorylated / KINOMEscan: ABL1(F317I)-phosphorylated / KINOMEscan: ABL1(F317L)-nonphosphorylated: unit: % Ctrl; conditions: Compound Concentration 10 µM
T2 construct: purchased KINOMEscan
T2 sequence (O15146 24-869): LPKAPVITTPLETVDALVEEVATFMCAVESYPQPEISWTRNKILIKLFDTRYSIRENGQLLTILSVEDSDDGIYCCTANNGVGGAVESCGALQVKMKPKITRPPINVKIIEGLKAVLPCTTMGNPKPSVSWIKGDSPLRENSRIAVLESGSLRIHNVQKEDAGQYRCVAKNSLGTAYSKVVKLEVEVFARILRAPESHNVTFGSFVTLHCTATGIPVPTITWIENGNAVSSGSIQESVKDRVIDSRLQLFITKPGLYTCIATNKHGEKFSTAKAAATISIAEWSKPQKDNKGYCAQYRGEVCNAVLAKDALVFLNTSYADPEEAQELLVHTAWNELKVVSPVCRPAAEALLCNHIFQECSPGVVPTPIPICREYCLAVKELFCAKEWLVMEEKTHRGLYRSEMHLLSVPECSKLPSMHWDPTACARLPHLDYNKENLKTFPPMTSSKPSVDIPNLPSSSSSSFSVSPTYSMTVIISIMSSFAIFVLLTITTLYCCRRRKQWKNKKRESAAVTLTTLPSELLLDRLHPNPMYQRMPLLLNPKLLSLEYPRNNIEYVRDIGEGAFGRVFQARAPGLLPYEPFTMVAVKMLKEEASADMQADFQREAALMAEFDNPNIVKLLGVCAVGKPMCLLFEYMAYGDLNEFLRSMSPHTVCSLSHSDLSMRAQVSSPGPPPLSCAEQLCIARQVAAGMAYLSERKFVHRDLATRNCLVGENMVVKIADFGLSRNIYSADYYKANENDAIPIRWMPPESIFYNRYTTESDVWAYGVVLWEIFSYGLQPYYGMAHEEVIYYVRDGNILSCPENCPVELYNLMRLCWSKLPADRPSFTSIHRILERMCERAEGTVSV
From the text: as §1

SMILES | KINOMEscan: ARK5 (panel of 442 kinases [1]) | KINOMEscan: MUSK (panel of 442 kinases [2])
CCOc1cc(C(=O)N2CCC(N3CCN(C)CC3)CC2)ccc1Nc1ncc2c(n1)N(C1CCCC1)c1ccccc1C(=O)N2C [Compound 26] | 100 | 100
COc1cc(C(=O)N2CCC(N3CCN(C)CC3)CC2)ccc1Nc1ncc2c(n1)N1CCc3cccc(c31)C(=O)N2C [Compound 24] | 68 | 
COc1cc(C(=O)N2CCC(N3CCN(C)CC3)CC2)ccc1Nc1ncc2c(n1)N(C)c1ccccc1C(=O)N2C [15 (LRRK2-IN-1)] | 47 | 99
COc1cc(C(=O)N2CCC(N3CCN(C)CC3)CC2)ccc1Nc1ncc2c(n1)N(C1CCCC1)c1ccccc1C(=O)N2C [Compound 25, 11-cyclopentyl-2-((2-methoxy-4-(4-(4-methylpiperazin-1-yl)piperidine-1-carbonyl)phenyl)amino)-5-methyl-5H-benzo[e]pyrimido[5,4-b][1,4]diazepin-6(11H)-one] | 90 | 100

— PMC3914206
